Source: patent publication US20240124445A1, “BENZENE RING COMPOUND AND USE THEREOF” (NANJING SHIJIANG MEDICINE TECHNOLOGY CO., LTD, priority 2020, published 2024)
Where two headings read alike, the source gives them in different places.

Experiments:
NCI-H82 cell = experiment: Cell viability (Promega CellTiter-Glo) of NCI-H82 cell; format: cell-based; conditions: Homo sapiens
Method: Cell viability was detected using the Promega CellTiter-Glo kit, the kit reflected cell viability by directly measuring intracellular ATP content. Small cell lung cancer cell NCI-H82 (ATCC, No. HTB-175) was cultured in 10% fetal bovine serum-containing RPMI1640 medium (+P/S).
(§1) Cell viability was detected using the Promega CellTiter-Glo kit, the kit reflected cell viability by directly measuring intracellular ATP content.
(§2) Daoy cell was cultured in 10% fetal bovine serum-containing DMEM medium (+P/S), and NCI-H82 cell was cultured in 10% fetal bovine serum-containing RPMI1640 medium (+P/S).
(§3) Cell viability was detected using the Promega CellTiter-Glo kit, the kit reflected cell viability by directly measuring intracellular ATP content. In the experiment, the IC50 value of different compounds on different tumor cell lines was detected to determine cell lines that were sensitive or insensitive to different compounds.
(§4) Tumor cells were cultured in 10% FBS-containing medium (+p/s), and incubated for 3 h or the following day, then the gradient diluted compound was added. After 3 days of culture, the relevant IC50 (50% inhibiting concentration) was measured. The name, source and culture conditions of each tumor cell line were as follows:
Cell line NCI-H82 (ATCC, No. HTB-175) was cultured in 10% fetal bovine serum-containing RPMI1640 medium (+P/S).

G-401 = experiment: Cell viability (CellTiter-Glo) of G-401; format: cell-based; conditions: Homo sapiens, 72 h; G-401, 3 days of culture, Table 5; read-out: IC50 G-401
Method: (§5) Cell viability was detected using the Promega CellTiter-Glo kit, the kit reflected cell viability by directly measuring intracellular ATP content. Different cancer cells was cultured in medium, the 50% inhibiting concentration (IC50) of compound AB24852 on cancer cells was determined using Promega CellTiter-Glo kit. The name, source and culture conditions of each tumor cell line were as follows:
Cell line G-401 (ATCC, No. CRL-1441) was cultured in 10% fetal bovine serum-containing McCoy's 5a medium (+P/S).
as §3
(§6) Tumor cells were cultured in 10% FBS-containing medium (+p/s), and incubated for 3 h or the following day, then the gradient diluted compound was added. After 3 days of culture, the relevant IC50 (50% inhibiting concentration) was measured. The name, source and culture conditions of each tumor cell line were as follows: […]

MDA-MB-453 = experiment: Cell viability (CellTiter-Glo) of MDA-MB-453; format: cell-based; conditions: Homo sapiens, 72 h; MDA-MB-453, 3 days of culture, Table 5; read-out: IC50 MDA-MB-453
Method: as §5
Cell line MDA-MB-453 (ATCC, No. HTB-131) was cultured in 10% fetal bovine serum-containing Leibovitz's L-15 medium (+P/S).
as §3, §6

SW48 = experiment: Cell viability (CellTiter-Glo) of SW48; format: cell-based; conditions: Homo sapiens, 72 h; SW48, 3 days of culture, Table 5; read-out: IC50 SW48
Method: as §5
Cell line SW48 (ATCC, No. CCL-231) was cultured in 10% fetal bovine serum-containing Leibovitz's L-15 medium (+P/S).
as §3, §6

GB-1 = experiment: Cell viability (CellTiter-Glo) of GB-1; format: cell-based; conditions: Homo sapiens, 72 h; GB-1, 3 days of culture
Method: as §3, §4
Cell line GB-1 (JCRB, No. IF050489) was cultured in 10% fetal bovine serum-containing DMEM medium (+P/S).

786-O = experiment: Cell viability (CellTiter-Glo) of 786-O; format: cell-based; conditions: Homo sapiens, 786-0, 72 h, 3 days of culture
Method: as §3, §4
Cell line 786-0 (ATCC, No. CRL-1932) was cultured in 10% fetal bovine serum-containing RPMI1640 medium (+P/S).

CFPAC-1 = experiment: Cell viability (CellTiter-Glo) of CFPAC-1; format: cell-based; conditions: Homo sapiens, 72 h; CFPAC-1, 3 days of culture
Method: as §3, §4
Cell line CFPAC-1 (ATCC, No. CRL-1918) was cultured in 10% fetal bovine serum-containing IMDM medium (+P/S).

SF-126 = experiment: Cell viability (CellTiter-Glo) of SF-126; format: cell-based; conditions: Homo sapiens, 72 h; SF-126, 3 days of culture
Method: as §3, §6

[1] = Stability in human liver microsome; format: in vitro ADME; conditions: liver microsomes, pH 7.4, 1.5 μM drug solution, NADPH, 37° C., read-out: Human T1/2
Method: Vortexing for 10 min, the sample was centrifuged with 5594×g for 15 min in centrifuger (Thermo Multifuge×3R). • 10) taking 50 μL supernatant from the centrifuged sample, transferred to 96 well sample plate contain 50 μL water, mixed, and the sample was analyzed using LC-MS/MS.

Daoy cell = experiment: Cell viability (CellTiter-Glo) of Daoy cell with or without CsA; format: cell-based; conditions: Homo sapiens
Method: as §1, §2

[2] = 72 h, NCI-H82, 3 days of culture, Table 5, read-out: IC50 NCI-H82
[3] = NCI-H82 cell, Table 1, read-out: IC50
[4] = NCI-H82, read-out: IC50 NCI-H82 cell without CsA
[5] = read-out: IC50 Daoy cell with CsA
[6] = read-out: IC50 Daoy cell without CsA

## O=C1c2ccc(Cl)cc2CCC1[n+]1ccc(NCc2ccccc2)cc1 (stereo not drawn) [AB24841A]
NCI-H82 cell; [2]
  IC50: 590 nM
NCI-H82 cell; [3]
  IC50: 590 nM
G-401
  IC50: 630 nM
MDA-MB-453
  IC50: 620 nM
SW48
  IC50: 800 nM
GB-1
  IC50: 16400 nM
786-O
  IC50: > 50000 nM
CFPAC-1
  IC50: 35700 nM
SF-126
  IC50: 10800 nM
[1]
  half-life at 1 µM: 20.4 h

## O=C(C[n+]1ccc(NCc2ccccc2)cc1)c1ccc(Br)cc1 [AB24808A]
NCI-H82 cell; [2]
  IC50: 610 nM
NCI-H82 cell; [3]
  IC50: 610 nM
G-401
  IC50: 910 nM
MDA-MB-453
  IC50: 360 nM
SW48
  IC50: 1780 nM
GB-1
  IC50: 5270 nM
786-O
  IC50: 44000 nM
CFPAC-1
  IC50: 20000 nM
SF-126
  IC50: 2980 nM
[1]
  half-life at 1 µM: 5.69 h

## O=C(C[n+]1ccc2c(c1)CCCC(c1ccccc1)N2)c1ccc(Cl)cc1 (stereo not drawn) [AB24839]
NCI-H82 cell; [3]
  IC50: 990 nM
[1]
  half-life at 1 µM: 11.2 h

## O=C1c2cc(C(F)(F)F)ccc2CCC1[n+]1ccc(NCc2ccccc2)cc1 (stereo not drawn) [AB27144]
NCI-H82 cell; [4]
  IC50: 160 nM
NCI-H82 cell; [3]
  IC50: 160 nM
Daoy cell; [5]
  IC50: 210 nM
Daoy cell; [6]
  IC50: 1020 nM
[1]
  half-life at 1 µM: 75.2 h

## O=C1c2cc(OC(F)(F)F)ccc2CCC1[n+]1ccc2c(ccn2Cc2ccccc2)c1 (stereo not drawn) [AB27126]
NCI-H82 cell; [4]
  IC50: 150 nM
NCI-H82 cell; [3]
  IC50: 150 nM
Daoy cell; [5]
  IC50: 280 nM
Daoy cell; [6]
  IC50: 1950 nM
[1]
  half-life at 1 µM: 20.8 h

## O=C(C[n+]1ccc(NCc2ccccc2)cc1)c1cccc(Cl)c1 [AB24805A]
NCI-H82 cell; [2]
  IC50: 370 nM
NCI-H82 cell; [3]
  IC50: 370 nM
G-401
  IC50: 420 nM
MDA-MB-453
  IC50: 210 nM
SW48
  IC50: 760 nM
GB-1
  IC50: 3430 nM
786-O
  IC50: 46500 nM
CFPAC-1
  IC50: 35700 nM
SF-126
  IC50: 3180 nM
[1]
  half-life at 1 µM: 3.71 h

## O=C1c2cc(Cl)ccc2CCC1[n+]1ccc2c(c1)CCC(c1ccccc1)N2 (stereo not drawn) [AB27130]
NCI-H82 cell; [4]
  IC50: 770 nM
NCI-H82 cell; [3]
  IC50: 770 nM
Daoy cell; [5]
  IC50: 310 nM
Daoy cell; [6]
  IC50: 5500 nM
[1]
  half-life at 1 µM: 5.96 h

## O=C(C[n+]1ccc2[nH]cc(Cc3ccccc3)c2c1)c1ccc(Cl)cc1 [AB24833A]
NCI-H82 cell; NCI-H82
  IC50: 3380 nM
NCI-H82 cell; NCI-H82, 72 h, read-out: IC50 NCI-H82
  IC50: 3380 nM
G-401
  IC50: 5300 nM
MDA-MB-453
  IC50: 5300 nM
SW48
  IC50: 8160 nM
GB-1
  IC50: 22000 nM
786-O
  IC50: 45400 nM
CFPAC-1
  IC50: 24800 nM
SF-126
  IC50: 21600 nM

## O=C(C[n+]1ccc(NCc2ccccc2)cc1)c1ccccc1 [AB24807A]
NCI-H82 cell; [3]
  IC50: 540 nM
[1]
  half-life at 1 µM: 3.31 h

## CC(c1ccccc1)[n+]1ccc2c(ccn2C2CCc3ccc(Cl)cc3C2=O)c1 (stereo not drawn) [AB27141]
NCI-H82 cell; [4]
  IC50: 10 nM
NCI-H82 cell; [3]
  IC50: 10 nM
Daoy cell; [5]
  IC50: 28 nM
Daoy cell; [6]
  IC50: > 1000 nM
[1]
  half-life at 1 µM: 4.85 h

## Cc1cn(Cc2ccccc2)c2cc[n+](C3CCc4ccc(Cl)cc4C3=O)cc12 (stereo not drawn) [AB27142]
NCI-H82 cell; [3]
  IC50: 60 nM
[1]
  half-life at 1 µM: 12.4 h

## O=C1c2cc(OC(F)(F)F)ccc2CCC1[n+]1ccc(NCc2ccccc2)cc1 (stereo not drawn) [AB27156]
NCI-H82 cell; [4]
  IC50: 260 nM
NCI-H82 cell; [3]
  IC50: 260 nM
Daoy cell; [5]
  IC50: 240 nM
Daoy cell; [6]
  IC50: 1050 nM
[1]
  half-life at 1 µM: 17.5 h

## Cc1ccc(C(=O)C[n+]2ccc(NCc3ccccc3)cc2)cc1 [AB24845A]
NCI-H82 cell; [2]
  IC50: 120 nM
NCI-H82 cell; [3]
  IC50: 120 nM
G-401
  IC50: 300 nM
MDA-MB-453
  IC50: 190 nM
SW48
  IC50: 140 nM
GB-1
  IC50: 4370 nM
786-O
  IC50: 38600 nM
CFPAC-1
  IC50: 29400 nM
SF-126
  IC50: 2280 nM

## O=C1c2cc(Cl)ccc2CCC1[n+]1ccc2c(ccn2Cc2ccccc2)c1 (stereo not drawn) [AB27124]
NCI-H82 cell; [3]
  IC50: 30 nM
[1]
  half-life at 1 µM: 1.77 h

## O=C1c2cc(Cl)ccc2CCC1[n+]1ccc(NCc2ccccc2)cc1 (stereo not drawn) [AB24913]
NCI-H82 cell; [3]
  IC50: 180 nM
[1]
  half-life at 1 µM: 7.97 h

## Cc1ccc(C(=O)C[n+]2ccc(NCc3ccccc3)nc2)cc1 [AB24846]
NCI-H82 cell; [2]
  IC50: 510 nM
NCI-H82 cell; [3]
  IC50: 510 nM
G-401
  IC50: 690 nM
MDA-MB-453
  IC50: 820 nM
SW48
  IC50: 2050 nM
GB-1
  IC50: 12300 nM
786-O
  IC50: 47300 nM
CFPAC-1
  IC50: 36400 nM
SF-126
  IC50: 3610 nM

## O=C1c2cc(C(F)(F)F)ccc2CCC1[n+]1ccc2c(ccn2Cc2ccccc2)c1 (stereo not drawn) [AB27125]
NCI-H82 cell; [4]
  IC50: 110 nM
NCI-H82 cell; [3]
  IC50: 110 nM
Daoy cell; [5]
  IC50: 190 nM
Daoy cell; [6]
  IC50: 1460 nM
[1]
  half-life at 1 µM: 14.2 h

## O=C(C[n+]1ccc(NCc2ccccc2)nc1)c1ccc(-c2ccccc2)cc1 [AB24964]
NCI-H82 cell; [3]
  IC50: 1090 nM
[1]
  half-life at 1 µM: 3.6 h

## O=C(C[n+]1ccc(NCc2ccccc2)cc1)c1ccc(C(F)(F)F)cc1 [AB24809A]
NCI-H82 cell; [2]
  IC50: 2430 nM
NCI-H82 cell; [3]
  IC50: 2430 nM
G-401
  IC50: 3030 nM
MDA-MB-453
  IC50: 1770 nM
SW48
  IC50: 7640 nM
GB-1
  IC50: > 50000 nM
786-O
  IC50: > 50000 nM
CFPAC-1
  IC50: > 50000 nM
SF-126
  IC50: 37500 nM
[1]
  half-life at 1 µM: 6.64 h

## O=C(C[n+]1ccc(NCc2ccccc2)cc1)c1ccc(OC(F)(F)F)cc1 [AB24810A]
NCI-H82 cell; [2]
  IC50: 1340 nM
NCI-H82 cell; [3]
  IC50: 1340 nM
G-401
  IC50: 1950 nM
MDA-MB-453
  IC50: 2690 nM
SW48
  IC50: 2130 nM
GB-1
  IC50: 24500 nM
786-O
  IC50: > 50000 nM
CFPAC-1
  IC50: 36000 nM
SF-126
  IC50: 13100 nM
[1]
  half-life at 1 µM: 65.2 h

## O=C1c2ccc(Cl)cc2CC1[n+]1ccc(NCc2ccccc2)cc1 (stereo not drawn) [AB24840A]
NCI-H82 cell; [3]
  IC50: 2590 nM
[1]
  half-life at 1 µM: 2.33 h

## O=C1c2cc(C(F)(F)F)ccc2CCC1[n+]1ccc2c(c1)CCC(c1ccccc1)N2 (stereo not drawn) [AB27131]
NCI-H82 cell; [4]
  IC50: 440 nM
NCI-H82 cell; [3]
  IC50: 440 nM
Daoy cell; [5]
  IC50: 710 nM
Daoy cell; [6]
  IC50: 4750 nM
[1]
  half-life at 1 µM: 6.81 h
